The values below come from ChEMBL document CHEMBL1687846, “Ex vivo activity of histone deacetylase inhibitors against multidrug-resistant clinical isolates of Plasmodium falciparum and P. vivax” (Antimicrob Agents Chemother, 2011).

Each structure is given as a SMILES string.

Assay [1] has as its system Plasmodium falciparum. The assay is described as follows: Antimalarial activity against ring stage of Plasmodium falciparum assessed as parasites growth inhibition using giemsa staining after 24 to 56 hrs by microscopic analysis in presence of 10% human serum. Type of assay: functional, organism-based.
Assay [2] relates to Plasmodium vivax. The assay is described as follows: Antimalarial activity against trophozoites stage of Plasmodium vivax assessed as parasites growth inhibition using giemsa staining after 24 to 56 hrs by microscopic analysis in presence of 20% human serum. Type of assay: functional, organism-based.
The subject of assay [3] is Plasmodium falciparum. As to the kind of experiment: Antimalarial activity against trophozoites stage of Plasmodium falciparum assessed as parasites growth inhibition using giemsa staining after 24 to 56 hrs by microscopic analysis in presence of 10% human serum. Type of assay: functional, organism-based.
Assay [4] concerns Plasmodium falciparum. As to the kind of experiment: Antimalarial activity against chloroquine-sensitive Plasmodium falciparum 3D7 assessed as inhibition of [3H]hypoxanthine incorporation. Type of assay: functional, organism-based.
Assay [5] has as its system Plasmodium vivax. The assay is described as follows: Antimalarial activity against Plasmodium vivax assessed as parasites growth inhibition using giemsa staining after 24 to 56 hrs by microscopic analysis in presence of 20% human serum. Type of assay: functional, organism-based.
Assay [6] deals with Plasmodium falciparum. The assay is described as follows: microbe, parasite or virus in culture. The conditions noted are these: K1, 3 h.
Description: Antimalarial activity against chloroquine-resistant Plasmodium falciparum K1 assessed as inhibition of [3H]hypoxanthine incorporation
Assay [7] deals with Plasmodium vivax. As to the kind of experiment: Antimalarial activity against ring stage of Plasmodium vivax assessed as parasites growth inhibition using giemsa staining after 24 to 56 hrs by microscopic analysis in presence of 20% human serum. Type of assay: functional, organism-based.
Assay [8] relates to Plasmodium falciparum. The assay is described as follows: Antimalarial activity against Plasmodium falciparum assessed as parasites growth inhibition using giemsa staining after 24 to 56 hrs by microscopic analysis in presence of 10% human serum. Type of assay: functional, organism-based.

A word on the IC50: it is the point on the concentration scale where inhibition reaches its midpoint. For `C[C@H]1[C@H](OC(=O)CCC(=O)O)O[C@@H]2O[C@@]3(C)CC[C@H]4[C@H](C)CC[C@@H]1[C@@]24OO3` [ARTESUNATE], the IC50 in the assay with Plasmodium falciparum [1] was 0.88 nM; in the assay with Plasmodium vivax [2], 0.39 nM; in the assay on Plasmodium falciparum [3], 1.19 nM; in the assay with Plasmodium falciparum [4], 2 nM; with Plasmodium vivax [5], 0.74 nM; in the assay on Plasmodium falciparum [6], 1 nM. For the same compound, the IC50 with Plasmodium vivax [7] was 0.75 nM; in the assay on Plasmodium falciparum [8], 0.92 nM.

Turning to `CCN(CC)Cc1cc(Nc2ccnc3cc(Cl)ccc23)ccc1O`, the IC50 was 21.1 nM with Plasmodium vivax [2]; 9.6 nM in the assay with Plasmodium falciparum [3]; 2 nM in the assay with Plasmodium falciparum [4]; 9.1 nM in the assay on Plasmodium vivax [5]; 5 nM with Plasmodium falciparum [8].

`O=C(CCCCC[C@H](NC(=O)c1cc2ccccc2[nH]1)C(=O)Nc1cccc2cccnc12)NO`: the half-maximal inhibitory concentration (IC50) in the assay with Plasmodium falciparum [1] was determined as 238 nM; in the assay on Plasmodium vivax [2], 214 nM; in the assay with Plasmodium falciparum [3], 467 nM; in the assay on Plasmodium vivax [5], 278 nM; in the assay on Plasmodium vivax [7] it was 327 nM; in the assay on Plasmodium falciparum [8], 266 nM.

With `OC(c1cc(C(F)(F)F)nc2c(C(F)(F)F)cccc12)C1CCCCN1` (configuration not stated) [MEFLOQUINE], the IC50 with Plasmodium vivax [2] is 10.2 nM; in the assay with Plasmodium vivax [5] it was 7.7 nM; with Plasmodium vivax [7], 9.2 nM; with Plasmodium falciparum [8] it was 6.3 nM.

For the compound `CCN(CC)CCCC(C)Nc1ccnc2cc(Cl)ccc12` (configuration not stated) [CHLOROQUINE], the results for the concentration for half-maximal inhibition (IC50) with Plasmodium vivax [2] and in the assay with Plasmodium vivax [5] were 841 nM and 40.4 nM, respectively.

For the compound `O=C(/C=C/c1ccccc1)N[C@@H](CCCCCC(=O)NO)C(=O)Nc1cccc2cccnc12`, the IC50 amounted to 492 nM with Plasmodium falciparum [1]; 438 nM with Plasmodium vivax [2]; 519 nM in the assay with Plasmodium falciparum [3]; 503 nM with Plasmodium vivax [5]; 545 nM in the assay with Plasmodium vivax [7]; 533 nM with Plasmodium falciparum [8].

As to `Clc1ccc2c(N3CCN(CCCN4CCN(c5ccnc6cc(Cl)ccc56)CC4)CC3)ccnc2c1` [PIPERAQUINE], the IC50 amounted to 15.9 nM in the assay on Plasmodium vivax [2]; 3 nM in the assay on Plasmodium falciparum [4]; 13.2 nM with Plasmodium vivax [5]; 11 nM with Plasmodium falciparum [6]; 15.5 nM in the assay with Plasmodium vivax [7]; 10.8 nM in the assay on Plasmodium falciparum [8].
